Results: the NIST ThermoML archive (doi:10.1021/je060032n)
Numbers after ± are expanded uncertainties.

Columns and labels:
[1] = refractive index (Na D-line) (dimensionless); details: 101.33 kPa, Liquid, Standard Abbe refractometry
[2] = 101 kPa, Liquid; for viscosity: Capillary tube (Ostwald / Ubbelohde) method
[3] = xn = mol fraction of the nth substance listed; details: 101 kPa, Liquid, x2 = 0; for viscosity: Capillary tube (Ostwald / Ubbelohde) method
[4] = refractive index (Na D-line) (dimensionless); xn = mol fraction of the nth substance listed; details: 101 kPa, Liquid, Standard Abbe refractometry, x2 = 0

NCCNCCO [N-(2-aminoethyl)ethanolamine]
Details | mass density, [2] [kg/m3] | refractive index, [1] | viscosity, [2] [mPa·s]
298.15 K | 1025.28 ± 0.55 | 1.48454 ± 0.00052 | 98.6 ± 3.2
303.15 K | 1021.53 ± 0.55 | 1.48269 ± 0.00053 | 70.5 ± 2.2
313.15 K | 1014.02 ± 0.54 | 1.47884 ± 0.00053 | 39.4 ± 1.2
323.15 K | 1006.44 ± 0.53 | 1.47516 ± 0.00053 | 23.4 ± 0.7
333.15 K | 998.83 ± 0.53 | 1.47128 ± 0.00054 | 14.8 ± 0.5
343.15 K | 991.15 ± 0.53 | – | 10.1 ± 0.3

O [water] + NCCNCCO
Details | mass density, [3] [kg/m3] | refractive index, [4] | viscosity, [3] [mPa·s]
298.15 K | – | 1.33258 ± 0.00033 | 0.882 ± 0.027
303.15 K | – | 1.33202 ± 0.00034 | 0.804 ± 0.025
313.15 K | – | 1.33067 ± 0.00035 | 0.659 ± 0.02
323.15 K | 988.03 ± 0.19 | 1.32909 ± 0.00035 | 0.551 ± 0.017
333.15 K | 983.19 ± 0.2 | 1.3273 ± 0.00036 | 0.47 ± 0.014
343.15 K | 977.75 ± 0.2 | – | 0.407 ± 0.013
